Data on two compounds can be found in US5245035A, “Heterocyclic boron compounds as intermediates for angiotensin II antagonists” (Imperial Chemical Industries PLC, priority 1991, dated 1993).

Structures can show the parent of a compound that is named as a salt.

In experiment [1] the target is T1, AII-induced contractions of isolated rabbit aorta (Oryctolagus cuniculus, UniProt P34976).
T1 construct: isolated rabbit aorta, maintained in a physiological salt solution; from tissue; host or cells: isolated rabbit aorta
T1 sequence (P34976 1-359): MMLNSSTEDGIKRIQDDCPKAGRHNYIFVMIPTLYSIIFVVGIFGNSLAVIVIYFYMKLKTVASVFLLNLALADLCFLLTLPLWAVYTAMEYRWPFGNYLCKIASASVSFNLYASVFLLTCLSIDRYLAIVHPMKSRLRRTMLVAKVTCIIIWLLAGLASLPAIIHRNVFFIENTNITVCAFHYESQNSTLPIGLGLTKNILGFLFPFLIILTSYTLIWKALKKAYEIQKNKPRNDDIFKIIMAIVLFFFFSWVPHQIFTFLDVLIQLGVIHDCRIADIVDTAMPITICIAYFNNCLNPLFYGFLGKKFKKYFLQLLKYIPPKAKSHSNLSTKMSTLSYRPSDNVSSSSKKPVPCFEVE
Kind of experiment: Test B: in vitro antagonism of AII-induced contractions of isolated rabbit aorta. It counts as cell-based. As to conditions: 37° C., read-out: average pA2 (converted). As for the experimental part: The antagonism of one or more of the physiological actions of AII and, in particular, the antagonism of the interaction of AII with the receptors which mediate its effects on a target tissue, may be assessed using one or more of the following, routine laboratory procedures: This in vitro test involves the measurement of the antagonistic effects of the test compound against […] contractions of isolated rabbit aorta, maintained in a physiological salt solution at 37° C. In order to ensure that the effect of the compound is specific to antagonism of AII, the effect of the test compound on noradrenaline-induced contractions may also be determined in the same preparation.

In experiment [2] the test system is angiotensin II-induced pressor responses. Kind of experiment: Test C: in vivo antagonism of angiotensin II-induced pressor responses in terminally-anaesthetised or conscious rats. As to conditions: Rattus norvegicus, iv, i.v. administration. The text has this: The antagonism of one or more of the physiological actions of AII and, in particular, the antagonism of the interaction of AII with the receptors which mediate its effects on a target tissue, may be assessed using one or more of the following, routine laboratory procedures: This in vivo test involves using terminally-anaesthetised or conscious rats in which an arterial catheter has been implanted under anaesthesia for the measurement of changes in blood pressure. The AII antagonistic effects of the test compound following oral or parenteral administration, are assessed against angiotensin II-induced pressor responses. To ensure that the effect is specific, the effect of the test compound on vasopressin-induced pressor responses may also be determined in the same preparation.

Usually ED50 stands for the dose at which the effect has come halfway, by size or by number of responders. A lower ED50 goes with an effect at a small dose. In the case of `Cc1cc(OCc2ccc(-c3ccccc3-c3nnn[nH]3)cc2)c2ccccc2n1.Cl` [2-methyl-4-[(2'-(1H-tetrazol-5-yl)biphenyl-4-yl)methoxy]quinoline hydrochloride], the Kb in experiment [1] is 1.12 nM. In experiment [2], this compound registered a median effective dose (ED50) of 0.5 mg/kg.
`Cc1cc(OCc2ccc(-c3ccccc3-c3nnn[nH]3)cc2)c2c(n1)CCCC2` [2-methyl-5,6,7,8-tetrahydro-4-[(2'-(1H-tetrazol-5-yl)methoxy]quinoline hydrochloride] registered an ED50 in experiment [2] of 0.28 mg/kg.
